Source: patent US20060013899A1, “Topical compositions for treatment of skin disorders and methods of use thereof” (priority 2004, published 2006)

Experiments:
interleukin-8 = conditions: cited from earlier work
[1] = system: mild to moderate eczema lesions
Source text: Anecdotally, zinc pyrithione appears to produce a transient histamine blocking or inhibiting mechanism.

[2] = only known side effect; cited from earlier work
[3] = system: eczema, psoriasis and other forms of immuno-dysfunctional dermatitis; experiment: control of eczema, psoriasis and other immuno-dysfunctional dermatitis by the individual ingredients and their combination; format: in vivo, human
Source text: The present invention includes zinc pyrithione, which has been used in other preparations for various types of skin conditions. Zinc pyrithione may be used to control mild to possibly moderate eczema and psoriasis.
The explanations above provide some validation of how these three ingredients may provide limited benefits, but cannot explain the dynamics of their relationship in the control of pro-inflammatory cytokines and the speed of the repair and healing process.

[4] = 24 patients, 0.25% zinc pyrithione spray; cited from earlier work
[5] = suspended in a water solution, topical, mild to moderate eczema lesions

Row | Substance | tumor necrosis factor-alpha mediated interleukin-8 expression (interleukin-8) | erythema ([1]; during the period of itch relief) | duration of itch relief [1, 5] | time to relief of the itching sensation [1, 5] | normal allergic reaction, share of the population [2] | control of disease ([3]; ingredient used individually or the three combined) | control of disease in the moderate to severe ranges ([3]; zinc pyrithione by itself) | effect on the efficacy of clobetasol propionate [4]
1 | epigallocatechin-3-gallate | inhibits tumor necrosis factor-alpha mediated interleukin-8 expression in a dose related manner |  |  |  |  |  |  | 
2 | zinc pyrithione |  | erythema was reduced | up to six | fifteen to thirty | less than one | some degree of control benefits for mild and possibly moderate eczema, psoriasis | fails to control these diseases in the moderate to severe ranges | did not appear to enhance the efficacy of clobetasol propionate
